Data reported in patent US9522935B2, “Commands and method of treating cancer via RHO pathway” (priority 2013, dated 2016).

System: HepG2 cells
Assay: Nude mouse model of hepatocellular carcinoma (HepG2), growth rate
Assay type: in vivo, nude mice
Conditions: nude mouse model, 75 mg/kg, twice a day, versus blank carrier control
Description: In contrast, LD30 (1 mg/kg/time, twice a day) reduced the growth rate of HepG2 cells by about 63%, with statistical significance (p<0.05) when compared with the ethanol control.
LD030 was also compared with Nexavar for their effects on the growth rate of HepG2 cells.
A further study was conducted on liver cancer cell line in nude mice (HepG2), where Nexavar's dosage was 30 mg/kg, twice a day and LD030's dosage was 1 mg/kg, twice a day along with a blank control and a combination of LD030 and Nexavar. The result is shown in FIG. 21 where Nr stands for Nexavar. […] When compared with the blank, LD030's effect is statistically significant (p<0.05).

CNC(=O)c1cc(Oc2ccc(NC(=O)Nc3ccc(Cl)c(C(F)(F)F)c3)cc2)ccn1 [Nexavar, reference compound]
reduction of growth rate of HepG2 cells: about 80%
